Assay results taken from patent publication US4985352A (The Trustees of Columbia University in the City of New York, priority 1989, dated 1991).

Test system: NIH3T3 cells
Assay: Flow cytometry of intracellular Ca2+ in control untransfected NIH3T3 cells
Type: cell-based, mouse
Conditions: untransfected NIH3T3 cells loaded with indo-1

Q: With `NCCc1c[nH]c2ccc(O)cc12` [serotonin, 5-hydroxytryptamine] as the molecule, how does the “Intracellular Ca2+ response to serotonin” value read?
A: did not respond
